Assay: Inhibition of West Nile virus NS2B-NS3 serine protease using Pyr-RTKR-AMC as substrate incubated for 1 hr prior to substrate addition measured every 45 secs for 1 hr by fluorescence assay

Row | IC50 | SMILES
1 | 18.2 µM | CC(=O)N[C@@H](CCCCN)C(=O)N[C@@H](CCCCN)C(=O)NCCCCNC(=N)N
2 | > 100 µM | CC(C)[C@H](NCC(=O)c1ccc(-c2ccccc2)cc1)C(=O)N[C@@H](CCCCN)C(=O)NCCCCNC(=N)N
3 | 23.8 µM | CC(C)C(=O)N[C@@H](CCCCN)C(=O)N[C@@H](CCCCN)C(=O)NCCCCNC(=N)N
4 | > 100 µM | N=C(N)NCCCCNC(=O)[C@H](CCCCN)NC(=O)CNCC(=O)c1ccc(-c2ccccc2)cc1
5 | 33.5 µM | N=C(N)NCCCCNC(=O)[C@H](CCCCN)NC(=O)[C@H](Cc1ccc(O)cc1)NCC(=O)c1ccc(-c2ccccc2)cc1
6 | 4.7 µM | N=C(N)NCCCCNC(=O)[C@H](CCCCN)NC(=O)[C@H](CCCCN)NCC(=O)c1ccc(-c2ccccc2)cc1
7 | > 100 µM | N=C(N)NCCCCNC(=O)[C@H](CCCCN)NC(=O)[C@H](CC(=O)O)NCC(=O)c1ccc(-c2ccccc2)cc1
8 | 8.5 µM | N=C(N)NCCCCNC(=O)[C@H](CCCCN)NC(=O)[C@H](CCCCN)NC(=O)Cc1ccccc1
9 | 47.9 µM | CCCC[C@H](NCC(=O)c1ccc(-c2ccccc2)cc1)C(=O)N[C@@H](CCCCN)C(=O)NCCCCNC(=N)N
10 | 32.5 µM | N=C(N)NCCCCNC(=O)[C@H](CCCCN)NC(=O)[C@H](CCCCN)NC(=O)c1ccc2ccccc2c1
11 | 9.6 µM | N=C(N)NCCCCNC(=O)[C@H](CCCCN)NC(=O)[C@H](CCCCN)NC(=O)Cc1cccc(Cl)c1
12 | 6.8 µM | Cc1ccccc1CC(=O)N[C@@H](CCCCN)C(=O)N[C@@H](CCCCN)C(=O)NCCCCNC(=N)N
13 | 38.2 µM | N=C(N)NCCCCNC(=O)[C@H](CCCCN)NC(=O)[C@@H](N)CCCCN
14 | > 100 µM | CC(C)C[C@H](NCC(=O)c1ccc(-c2ccccc2)cc1)C(=O)N[C@@H](CCCCN)C(=O)NCCCCNC(=N)N
15 | > 100 µM | N=C(N)NCCCCNC(=O)[C@H](CCCCN)NC(=O)[C@@H]1CCCN1CC(=O)c1ccc(-c2ccccc2)cc1
16 | > 100 µM | N=C(N)NCCCCNC(=O)[C@H](CCCCN)NC(=O)[C@H](Cc1cnc[nH]1)NCC(=O)c1ccc(-c2ccccc2)cc1
17 | > 100 µM | N=C(N)NCCCCNC(=O)[C@H](CCCCN)NC(=O)[C@H](CCC(=O)O)NCC(=O)c1ccc(-c2ccccc2)cc1
18 | 2.6 µM | N=C(N)NCCCCNC(=O)[C@H](CCCCN)NC(=O)[C@H](CCCCN)NC(=O)Cc1ccccc1Cl
19 | > 100 µM | CC(=O)N[C@@H](CCCCN)C(=O)NCCCCNC(=N)N

Row | IC50 | SMILES
20 | 33.3 µM | N=C(N)NCCCCNC(=O)[C@H](CCCCN)NC(=O)[C@H](CCCCN)NC(=O)c1cccc2ccccc12
21 | 9.9 µM | N=C(N)NCCCCNC(=O)[C@H](CCCCN)NC(=O)[C@H](CCCCN)NC(=O)Cc1cccc(-c2ccccc2)c1
22 | 19.1 µM | N=C(N)NCCCCNC(=O)[C@H](CCCCN)NC(=O)[C@H](CCCNC(=N)N)NCC(=O)c1ccc(-c2ccccc2)cc1
23 | > 100 µM | N=C(N)NCCCCNC(=O)[C@H](CCCCN)NC(=O)[C@H](CCC(N)=O)NCC(=O)c1ccc(-c2ccccc2)cc1
24 | 19.2 µM | CC(C)CC(=O)N[C@@H](CCCCN)C(=O)N[C@@H](CCCCN)C(=O)NCCCCNC(=N)N
25 | 4.8 µM | N=C(N)NCCCCNC(=O)[C@H](CCCCN)NC(=O)[C@H](CCCCN)NC(=O)Cc1ccc(Cl)cc1
26 | 38.6 µM | N=C(N)NCCCCNC(=O)[C@H](CCCCN)NC(=O)[C@H](CCCCN)NC(=O)c1ccccc1
27 | 18.5 µM | CCCC(=O)N[C@@H](CCCCN)C(=O)N[C@@H](CCCCN)C(=O)NCCCCNC(=N)N
28 | 11.2 µM | N=C(N)NCCCCNC(=O)[C@H](CCCCN)NC(=O)[C@H](CCCCN)NC(=O)CCCc1ccccc1
29 | 9.2 µM | Cc1cccc(CC(=O)N[C@@H](CCCCN)C(=O)N[C@@H](CCCCN)C(=O)NCCCCNC(=N)N)c1
30 | 44.5 µM | N=C(N)NCCCCNC(=O)[C@H](CCCCN)NC(=O)[C@H](Cc1ccccc1)NCC(=O)c1ccc(-c2ccccc2)cc1
31 | > 100 µM | N=C(N)NCCCCNC(=O)[C@H](CCCCN)NC(=O)[C@H](CO)NCC(=O)c1ccc(-c2ccccc2)cc1
32 | 6.9 µM | Cc1ccc(CC(=O)N[C@@H](CCCCN)C(=O)N[C@@H](CCCCN)C(=O)NCCCCNC(=N)N)cc1
33 | 42.2 µM | N=C(N)NCCCCNC(=O)[C@H](CCCCN)NC(=O)[C@H](CCCCN)NC(=O)CCc1ccccc1
34 | 27.1 µM | CC(C)(C)C(=O)N[C@@H](CCCCN)C(=O)N[C@@H](CCCCN)C(=O)NCCCCNC(=N)N
35 | > 100 µM | N=C(N)NCCCCNC(=O)[C@H](CCCCN)NC(=O)[C@H](CC(N)=O)NCC(=O)c1ccc(-c2ccccc2)cc1
36 | 53.7 µM | C[C@H](NCC(=O)c1ccc(-c2ccccc2)cc1)C(=O)N[C@@H](CCCCN)C(=O)NCCCCNC(=N)N
37 | 19.1 µM | CCC(=O)N[C@@H](CCCCN)C(=O)N[C@@H](CCCCN)C(=O)NCCCCNC(=N)N
38 | > 100 µM | N=C(N)NCCCCNC(=O)[C@H](CCCCN)NC(=O)[C@@H](CCCCN)NCC(=O)c1ccc(-c2ccccc2)cc1

Reference: ChEMBL document CHEMBL2331358, “Novel agmatine dipeptide inhibitors against the West Nile virus NS2B/NS3 protease: a P3 and N-cap optimization study” (Eur J Med Chem, 2013)
